PMC7074965, “Discovery of Two Brominated Oxindole Alkaloids as Staphylococcal DNA Gyrase and Pyruvate Kinase Inhibitors via Inverse Virtual Screening” (Microorganisms, 2020)
Converted amounts (≈) assume the structure as drawn. Like-named read-outs stand apart in the source and are kept apart here.

Assays:
[1] = system: Bacillus subtilis ATCC5230; assay: MIC determination, twofold serial dilution; format: cell-based; conditions: read-out: MIC (B. subtilis)
Procedure: (§1) All the bacterial strains were maintained at −80 °C in 15% glycerol nutrient broth (Oxoid, Milan, Italy).
(§2) The twofold serial dilution approach was applied to determine the MICs of each compound. Each tested compound was dissolved in DMSO (Sigma, Milan, Italy) to prepare the test solutions. Many colonies of each tested bacterial strain were inoculated in 10 mL of sterilized Mueller–Hinton broth (MHB) (Oxoid) and incubated at 37 °C for 18–24 h. […] All data are reported as the mean of three independent experiments.

[2] = system: Escherichia coli ATCC 259228; assay: MIC determination, twofold serial dilution; format: cell-based; conditions: read-out: MIC (E. coli)
Procedure: as §1, §2

[3] = system: MRSA ATCC33591; assay: MIC determination, twofold serial dilution; format: cell-based; conditions: Staphylococcus aureus, read-out: MIC (MRSA)
Procedure: as §1, §2

[4] = system: Pseudomonas aeruginosa ATCC9027; assay: MIC determination, twofold serial dilution; format: cell-based; conditions: read-out: MIC (P. aeruginosa)
Procedure: as §1, §2

[5] = system: Pim-1 kinase; set-up: method as in PMID 30061488, PMID 30525020, PMID 31395834; conditions: previously reported; cited from earlier work
[6] = Bacillus subtilis, ATCC5230, 24 h incubation, mean of three experiments
[7] = Escherichia coli, ATCC259228, 24 h incubation, mean of three experiments
[8] = 24 h incubation, mean of three experiments
[9] = Pseudomonas aeruginosa, ATCC9027, 24 h incubation, mean of three experiments
[10] = Bacillus subtilis, ATCC5230, 24 h
[11] = Escherichia coli, ATCC259228, 24 h
[12] = Pseudomonas aeruginosa, ATCC9027, 24 h

| Compound | MIC [1, 6] | MIC [2, 7] | MIC [3, 8] | MIC [4, 9] | MIC [1, 8] | MIC [2, 8] | MIC [4, 8] | also measured |
| --- | --- | --- | --- | --- | --- | --- | --- | --- |
| O=C1Nc2ccccc2C1(c1c[nH]c2ccccc12)c1c[nH]c2ccccc12 [Compound 3, Trisindoline] | 16 µM (≈ 5.81 µg/mL) | > 256 µM | 32 µM (≈ 11.6 µg/mL) | > 256 µM |  |  |  |  |
| CC(c1c[nH]c2ccccc12)c1c[nH]c2ccccc12 [Compound 4, Vibrindole] | 64 µM (≈ 16.7 µg/mL) | 128 µM (≈ 33.3 µg/mL) | 64 µM (≈ 16.7 µg/mL) | > 256 µM |  |  |  |  |
| CC(=O)C[C@]1(O)C(=O)Nc2cc(Br)ccc21 [Compound 5, Convolutamidine F] | 128 µM (≈ 36.4 µg/mL) | > 256 µM | 128 µM (≈ 36.4 µg/mL) | > 256 µM |  |  |  | Pim-1 kinase inhibition [5]: potent cytotoxic Pim-1 kinase inhibitors |
| O=C1Nc2cc(Br)ccc2[C@@]1(O)c1c[nH]c2ccccc12 [Compound 6, (S) 6-bromo-3-hydroxy-3-(1H-indol-3-yl) indolin-2-one] |  |  |  |  |  |  |  | MIC [1, 10]: 128 µM (≈ 43.9 µg/mL); MIC [2, 11]: > 256 µM; MIC ([3]; 24 h): > 256 µM; MIC [4, 12]: > 256 µM |
| COc1ccc(/C=C/C(=O)/C=C2/C(=O)Nc3cc(Br)ccc32)cc1 [Compound 7, Saccharomon osp orine A] | > 256 µM | > 256 µM | > 256 µM | > 256 µM |  |  |  | Pim-1 kinase inhibition [5]: potent cytotoxic Pim-1 kinase inhibitors |
| O=C1Nc2ccccc2C1=O [Compound 8, Isatine] |  |  |  |  | > 256 µM | > 256 µM | > 256 µM |  |
| O=C1Nc2ccc(Br)cc2C1=O [Compound 9, 5-Bromoisatine] | 128 µM (≈ 28.9 µg/mL) | > 256 µM | 128 µM (≈ 28.9 µg/mL) | > 256 µM |  |  |  |  |
| O=C1Nc2cc(Br)ccc2C1=O [Compound 10, 6-Bromoisatine] | 128 µM (≈ 28.9 µg/mL) | 128 µM (≈ 28.9 µg/mL) | 128 µM (≈ 28.9 µg/mL) | > 256 µM |  |  |  |  |
| CC(=O)/C=C1/C(=O)Nc2ccc(Br)cc21 [Compound 11, (E)-5-bromo-3-(2-oxopropylidene)indolin-2-one] |  |  |  |  | > 256 µM | > 256 µM | > 256 µM |  |
| Cc1c[nH]c2ccccc12 [Compound 12, Skatole] |  |  |  |  | > 256 µM | > 256 µM | > 256 µM |  |
| O=Cc1c[nH]c2ccccc12 [Compound 13, Indole-3-carbaldehyde] | > 256 µM | > 256 µM | > 256 µM | > 256 µM |  |  |  |  |
| OCCc1c[nH]c2ccccc12 [Compound 14, Tryptophol] | > 256 µM | > 256 µM | > 256 µM | > 256 µM |  |  |  |  |
| O=C(O)C(=O)Cc1c[nH]c2ccccc12 [Compound 15, Indole-3-pyruvic acid] | > 256 µM | > 256 µM | > 256 µM | > 256 µM |  |  |  |  |
| COc1ccc(C(=O)O)cc1 [Compound 16, p-Anisic acid] | > 256 µM | > 256 µM | > 256 µM | > 256 µM |  |  |  |  |
| COC(=O)c1ccc(OC)cc1 [Compound 17, p-Anisic acid methyl ester] |  |  |  |  | > 256 µM | > 256 µM | > 256 µM |  |
| COc1cc(C(=O)O)cc(OC)c1O [Compound 18, Syringic acid] | > 256 µM | > 256 µM | > 256 µM | > 256 µM |  |  |  |  |
| Nc1ccccc1C(=O)O [Compound 19, Anthranilic acid] |  |  |  |  |  |  |  | MIC [1, 10]: > 256 µM; MIC [2, 11]: > 256 µM; MIC ([3]; 24 h): > 256 µM; MIC [4, 12]: > 256 µM |

| Compound | MIC [1, 6] | MIC [2, 7] | MIC [3, 8] | MIC [4, 9] | MIC [1, 8] | MIC [2, 8] | MIC [4, 8] | also measured |
| --- | --- | --- | --- | --- | --- | --- | --- | --- |
| O=Cc1ccc(O)cc1 [Compound 20, p-Hydroxy benzaldehyde] |  |  |  |  | > 256 µM | > 256 µM | > 256 µM |  |
| O=Cc1cc(O)ccc1O [Compound 21, Gentisaldehyde] |  |  |  |  | > 256 µM | > 256 µM | > 256 µM |  |
| COc1ccc(C(=O)OCc2ccccc2)cc1 [Compound 22, Benzyl anisate] |  |  |  |  | > 256 µM | > 256 µM | > 256 µM |  |
| COc1cc(C(C)=O)cc(OC)c1O [Compound 23, Acetosyringone] | > 256 µM | > 256 µM | > 256 µM | > 256 µM |  |  |  |  |
| COc1cc(/C=C/C(=O)O)cc(OC)c1O [Compound 24, Sinapic acid] |  |  |  |  | > 256 µM | > 256 µM | > 256 µM |  |
| O=C(O)Cc1ccccc1 [Compound 25, Phenyl acetic acid] |  |  |  |  |  |  |  | MIC [1, 10]: > 256 µM; MIC [2, 11]: > 256 µM; MIC ([3]; 24 h): > 256 µM; MIC [4, 12]: > 256 µM |
| O=C(O)c1ccc2ccccc2c1O [Compound 26, 1-Hydroxy-2-naphthoic acid] | > 256 µM | > 256 µM | > 256 µM | > 256 µM |  |  |  |  |
| O=C(O)c1cc(O)c2ccccc2c1O [Compound 27, 1,4 Dihydroxy-2-naphthoic acid] |  |  |  |  | > 256 µM | > 256 µM | > 256 µM |  |
| CC(C)CCC[C@@H](C)[C@H]1CC[C@H]2[C@@H]3CCC4=CC(=O)CC[C@]4(C)[C@H]3CC[C@]12C [Compound 29, Cholestenone] |  |  |  |  | > 256 µM | > 256 µM | > 256 µM |  |
| CC(C)CCC[C@@H](C)[C@H]1CC[C@H]2[C@@H]3CC[C@H]4CC(=O)CC[C@]4(C)[C@H]3CC[C@]12C [Compound 30, 5α-Cholestanone] |  |  |  |  | > 256 µM | > 256 µM | > 256 µM |  |
| CC[C@H](/C=C/[C@@H](C)[C@H]1CC[C@H]2[C@@H]3CCC4=CC(=O)CC[C@]4(C)[C@H]3CC[C@]12C)C(C)C [Compound 31, Stigmasterone] |  |  |  |  | > 256 µM | > 256 µM | > 256 µM |  |
| CC[C@H](C=C[C@@H](C)[C@H]1CC[C@H]2[C@@H]3CC(=O)C4=CC(=O)CC[C@]4(C)[C@H]3CC[C@]12C)C(C)C [Compound 32, Stigmasta-4,22-dien-3,6-dione] |  |  |  |  | > 256 µM | > 256 µM | > 256 µM |  |
| CC(C)[C@@H](C)/C=C/[C@@H](C)[C@H]1CC[C@@H]2[C@]1(C)CC[C@H]1[C@]23C=C[C@]2(C[C@@H](O)CC[C@]12C)OO3 [Compound 33, Ergosterol peroxide] | > 256 µM | > 256 µM | > 256 µM | > 256 µM |  |  |  |  |
| CC1=CCC2C(CC[C@@]2(C)O)C(C)(C)C1CC[C@@H]1[C@@]2(C)CCC(=O)C(C)(C)O[C@@H]2CC[C@]1(C)O (stereo partly drawn) [Compound 34, Sipholenone A] | > 256 µM | > 256 µM | > 256 µM | > 256 µM |  |  |  |  |
| CC1=CCC2C(CC[C@@]2(C)O)C(C)(C)C1CC[C@@H]1[C@@]2(C)CC[C@@H](O)C(C)(C)O[C@@H]2CC[C@]1(C)O (stereo partly drawn) [Compound 35, Sipholenol A] | > 256 µM | > 256 µM | > 256 µM | > 256 µM |  |  |  |  |
| CCCCCCCCCCC/C=C\CCCCC(=O)O [Compound 36, Petroselenic acid] |  |  |  |  | > 256 µM | > 256 µM | > 256 µM |  |
| Callysterol [Compound 28] |  |  |  |  | > 256 µM | > 256 µM | > 256 µM |  |
